Data taken from ChEMBL document CHEMBL5723582, “Data for DCP probe T-10430” (2024).

Biological target: Leukotriene B4 receptor 1 (Homo sapiens, UniProt Q15722)
Experiment: IP-One assay (LTB4R), antagonist mode at up to 50 µM ( vs. 300 nM LTB4); call rule not given here
Assay type: functional
Parameters: compound concentration < 50 uM

Sequence of Leukotriene B4 receptor 1 (Q15722 whole entry): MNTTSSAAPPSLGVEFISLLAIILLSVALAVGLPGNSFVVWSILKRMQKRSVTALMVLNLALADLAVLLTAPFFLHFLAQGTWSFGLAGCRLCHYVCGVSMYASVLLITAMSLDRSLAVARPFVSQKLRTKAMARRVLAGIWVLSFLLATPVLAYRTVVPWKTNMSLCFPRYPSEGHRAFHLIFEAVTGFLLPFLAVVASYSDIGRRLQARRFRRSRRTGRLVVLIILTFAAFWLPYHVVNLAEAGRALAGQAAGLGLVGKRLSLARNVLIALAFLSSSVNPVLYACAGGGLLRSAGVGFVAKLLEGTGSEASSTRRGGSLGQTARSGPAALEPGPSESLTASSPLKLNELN

Question: For `CCCCC(=O)N1CC2(CCN(c3ccccc3-c3nnn[nH]3)CC2)C1`, which EC50 is on record?
Answer: > 50 µM (not active)
